# ChEMBL document CHEMBL1201862, “PubChem BioAssay data set” (2004)
# Calls of active or inactive are those of the source.
# How the values were obtained:
# Mu-type opioid receptor = Mu-type opioid receptor (Homo sapiens, UniProt P35372); format: functional, cell-based;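 further: U2OS cells with beta-arrestin recruitment to OPRM1 by beta-gal complementation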
# [1] = target: 5-hydroxytryptamine receptor 2A (Mus musculus, UniProt P35363); format: functional, cell-based;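 further: CHO-K1 cells with tagged receptor and beta-arrestin; agonist potency measured as compound-induced activation of the receptor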
# [2] = CEM21 lymphoblast cell cytotoxicity, dose response, cytotoxicity control for viral fusion inhibitor project, CellTiter-Glo luminescence, cherry-picked (AID 652042); format: functional, cell-based;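 further: potency for signal decrease meaning cytotoxicity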
# BJ [3] = assay: cytotoxicity toward BJ-TERT fibroblasts, dose response, cell-based, RAS-independent, luminescence (AID 1933); format: functional; conditions: Homo sapiens
# [4] = Luminescence Cell-Based Dose Confirmation HTS to Identify Inhibitors of Platelet Dense Granule Release. [Related pubchem assays: 1663 (Primary HTS), 1678 (Summary of Project)]; format: functional
# [5] = inhibitors of clade B AD8 Env fusion, dose response, cell-based, cherry-pick (AID 652062); format: functional;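 further: luciferase signal from cell-cell fusion driven by HIV-1 clade B AD8 Env; potency is for inhibitors of fusion seen as a drop in luminescence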
# BJ [6] = assay: cells; format: functional, cell-based; conditions: Homo sapiens
# [7] = inhibitors of HIV Env-driven cell fusion, dose response, cherry-pick (AID 652057); format: functional, cell-based
# [8] = cytotoxicity toward DRD oncogenic fibroblasts, dose response, cell-based, non-viral oncogenic, luminescence (AID 1934); format: functional; conditions: Homo sapiens
# BJ [9] = assay: cytotoxicity toward Ras-transformed BJeLR fibroblasts, dose response, cell-based, alamar blue fluorescence, cherrypicked samples (AID 2631); format: functional; conditions: Homo sapiens;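 further: confirmatory dose-response assay in RAS-dependent BJ fibroblasts engineered with TERT, LT and ST, with cytotoxicity read by fluorescence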
# BJ [10] = assay: cytotoxicity toward BJ-TERT-LT-ST fibroblasts, dose response, cell-based, RAS-independent, luminescence (AID 1935); format: functional; conditions: Homo sapiens;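 further: BJ fibroblasts immortalized with TERT plus LT and ST oncogenes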
# [11] = A Cell Based Secondary Assay To Explore Cytotoxicity of Compounds that Sensitize Mycobacterium Tuberculosis to Beta-Lactam Antibiotics.; format: functional
# INS1 = assay: beta cell apoptosis inhibitors, cytokine rescue, dose response, luminescence, retest (AID 449756); format: functional, cell-based; conditions: Rattus norvegicus;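 further: cell death triggered by IL-1 beta plus TNF-alpha plus IFN-gamma mixture; protective hits raise ATP signal compared with cytokine alone wells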
# [12] = target: Luciferin 4-monooxygenase (Photinus pyralis, UniProt P08659); assay: firefly luciferase enzyme inhibitors, dose response, biochemical, luminescence (AID 1891)
# [13] = off-target signal loss in HeLa-CEM21 co-culture – HeLa F-luc CTL cells, cherry-picked, counter-screen for HIV-1 Env fusion inhibitor project, dose response (AID 652040); format: functional, cell-based;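 further: potency for signal decrease marking cytotoxic or nonspecific inhibition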
# [14] = HEp-2 cell cytotoxicity, dose response, cytotoxicity control for RSV inhibitor project, HTS (AID 2410); format: functional; conditions: human respiratory syncytial virus
# [15] = target: T1, Methionyl-tRNA synthetase, putative (Trypanosoma brucei brucei, UniProt Q38C91); format: functional, Trypanosoma brucei brucei strain 927/4 GUTat10.1
# T1 sequence (Q38C91 whole entry): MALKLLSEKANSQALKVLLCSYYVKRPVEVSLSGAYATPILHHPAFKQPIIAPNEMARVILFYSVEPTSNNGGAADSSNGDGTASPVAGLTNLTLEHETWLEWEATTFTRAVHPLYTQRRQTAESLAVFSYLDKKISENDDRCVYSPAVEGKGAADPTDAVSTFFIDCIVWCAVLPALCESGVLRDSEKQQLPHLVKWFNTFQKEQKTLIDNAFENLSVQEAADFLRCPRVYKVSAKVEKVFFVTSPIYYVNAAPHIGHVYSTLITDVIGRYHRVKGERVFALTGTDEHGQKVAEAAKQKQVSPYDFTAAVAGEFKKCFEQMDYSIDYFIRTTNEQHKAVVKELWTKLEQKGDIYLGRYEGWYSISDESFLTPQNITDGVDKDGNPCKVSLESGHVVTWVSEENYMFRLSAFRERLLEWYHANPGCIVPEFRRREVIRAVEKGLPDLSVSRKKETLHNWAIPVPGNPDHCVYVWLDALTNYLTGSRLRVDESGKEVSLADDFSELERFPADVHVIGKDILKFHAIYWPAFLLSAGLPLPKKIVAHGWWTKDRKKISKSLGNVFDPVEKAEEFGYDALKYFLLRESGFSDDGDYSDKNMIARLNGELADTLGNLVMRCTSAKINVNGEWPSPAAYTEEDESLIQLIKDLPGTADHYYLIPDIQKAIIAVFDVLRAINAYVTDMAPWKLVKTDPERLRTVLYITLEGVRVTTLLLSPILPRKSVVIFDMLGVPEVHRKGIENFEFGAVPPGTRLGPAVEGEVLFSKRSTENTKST
# [16] = Counterscreen for inhibitors of Trypanosoma brucei methionyl tRNA synthetase (MetRS): Luminescence-based cell-based high throughput dose response assay to identify compounds that are cytotoxic to Jurkat human T lymphocyte cells.; format: functional
# [17] = target: T1, Methionyl-tRNA synthetase, putative; format: functional, Trypanosoma brucei brucei strain 927/4 GUTat10.1; remark: listed apart in the source
# Caspase-3 = target: T2, Caspase-3 (Homo sapiens, UniProt P42574); assay: Dose-response confirmation of uHTS inhibitor hits of Sentrin-Specific Protease 8 in a Caspase-3 Fluorescence assay.; format: functional
# T2 sequence (P42574 whole entry): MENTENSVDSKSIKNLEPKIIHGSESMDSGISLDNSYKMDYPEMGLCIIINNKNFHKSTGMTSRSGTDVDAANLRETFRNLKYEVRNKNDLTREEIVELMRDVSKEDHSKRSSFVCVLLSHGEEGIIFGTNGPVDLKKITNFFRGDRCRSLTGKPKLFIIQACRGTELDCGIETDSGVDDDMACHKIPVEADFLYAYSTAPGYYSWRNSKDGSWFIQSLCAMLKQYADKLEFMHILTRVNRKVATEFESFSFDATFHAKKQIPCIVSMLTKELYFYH
# [18] = target: T3, Sentrin-specific protease 8 (Homo sapiens, UniProt Q96LD8); format: functional
# T3 sequence (Q96LD8 whole entry): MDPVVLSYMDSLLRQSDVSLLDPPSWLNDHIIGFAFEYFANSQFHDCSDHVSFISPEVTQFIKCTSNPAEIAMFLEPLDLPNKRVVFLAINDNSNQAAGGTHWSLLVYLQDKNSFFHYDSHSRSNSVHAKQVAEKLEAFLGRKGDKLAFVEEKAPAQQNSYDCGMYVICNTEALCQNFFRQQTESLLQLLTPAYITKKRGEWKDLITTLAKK
# [19] = target: T3, Sentrin-specific protease 8; format: functional; remark: listed apart in the source
# [20] = target: SWI/SNF-related matrix-associated actin-dependent regulator of chromatin subfamily A member 2 (Homo sapiens, UniProt P51531); assay: Luminescence-based cell-based high throughput dose response assay to identify activators of the function of SWI/SNF related, matrix associated, actin dependent regulator of chromatin, subfamily a, member 2 (SMARCA2, BRM).; format: functional
# [21] = Counterscreen for activators of the function of SWI/SNF related, matrix associated, actin dependent regulator of chromatin, subfamily a, member 2 (SMARCA2, BRM): Luminescence-based cell-based high throughput dose response assay to identify non-selective compounds using the VP16 reporter assay.; format: functional
# [22] = target: T4, Sentrin-specific protease 1 (Homo sapiens, UniProt Q9P0U3); assay: Dose response confirmation of small molecule inhibitors of the catalytic domain of the SUMO protease, SENP1 in a FRET assay.; format: functional; conditions: read-out: IC50_Mean
# T4 sequence (Q9P0U3 whole entry): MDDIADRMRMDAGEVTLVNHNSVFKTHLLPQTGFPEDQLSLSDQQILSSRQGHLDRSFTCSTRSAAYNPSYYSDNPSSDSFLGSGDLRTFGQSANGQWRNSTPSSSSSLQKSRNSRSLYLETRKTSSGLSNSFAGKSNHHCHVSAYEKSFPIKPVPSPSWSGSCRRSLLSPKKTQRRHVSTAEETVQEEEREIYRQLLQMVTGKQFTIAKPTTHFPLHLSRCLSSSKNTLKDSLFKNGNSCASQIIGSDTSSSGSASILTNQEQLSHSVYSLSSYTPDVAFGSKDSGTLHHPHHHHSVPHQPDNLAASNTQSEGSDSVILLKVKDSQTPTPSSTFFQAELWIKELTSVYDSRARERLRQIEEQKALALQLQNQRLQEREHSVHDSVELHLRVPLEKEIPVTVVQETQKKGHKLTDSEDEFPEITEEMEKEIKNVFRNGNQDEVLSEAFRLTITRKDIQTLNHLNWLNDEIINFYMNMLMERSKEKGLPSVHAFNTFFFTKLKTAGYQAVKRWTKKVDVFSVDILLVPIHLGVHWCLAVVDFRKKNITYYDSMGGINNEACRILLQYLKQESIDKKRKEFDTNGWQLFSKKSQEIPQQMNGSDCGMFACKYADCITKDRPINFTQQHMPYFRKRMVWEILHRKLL
# [23] = target: T5, Long-chain-fatty-acid--AMP ligase FadD28 (Mycobacterium tuberculosis, UniProt P9WQ59); assay: Fluorescence polarization aasay to screen for inhibitors that compete for the binding of FadD28 to a bisubstrate Measured in Biochemical System Using Plate Reader - 2147-01_Inhibitor_Dose_CherryPick_Activity.; format: functional, Mycobacterium tuberculosis H37Rv
# T5 sequence (P9WQ59 whole entry): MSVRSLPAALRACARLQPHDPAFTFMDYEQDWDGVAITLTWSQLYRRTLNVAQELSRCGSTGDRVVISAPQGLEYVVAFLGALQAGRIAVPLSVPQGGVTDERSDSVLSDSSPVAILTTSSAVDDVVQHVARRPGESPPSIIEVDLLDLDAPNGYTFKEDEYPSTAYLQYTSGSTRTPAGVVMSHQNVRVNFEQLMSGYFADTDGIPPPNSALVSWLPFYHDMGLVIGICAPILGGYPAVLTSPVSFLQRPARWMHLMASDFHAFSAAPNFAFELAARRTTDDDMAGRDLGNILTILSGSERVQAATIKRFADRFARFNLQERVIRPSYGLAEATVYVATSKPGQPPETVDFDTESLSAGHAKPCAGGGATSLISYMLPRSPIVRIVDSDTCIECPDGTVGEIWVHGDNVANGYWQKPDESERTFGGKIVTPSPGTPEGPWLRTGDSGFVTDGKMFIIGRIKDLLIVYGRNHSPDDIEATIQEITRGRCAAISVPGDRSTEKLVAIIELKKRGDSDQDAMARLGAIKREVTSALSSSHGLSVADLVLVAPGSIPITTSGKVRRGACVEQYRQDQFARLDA
# [24] = target: T4, Sentrin-specific protease 1; assay: potency of human SENP1 inhibitors, dose response, biochemical, kinetic FRET (AID 651697); format: functional; conditions: read-out: IC50_Mean
# Mu-type opioid receptor, sequence (P35372 whole entry): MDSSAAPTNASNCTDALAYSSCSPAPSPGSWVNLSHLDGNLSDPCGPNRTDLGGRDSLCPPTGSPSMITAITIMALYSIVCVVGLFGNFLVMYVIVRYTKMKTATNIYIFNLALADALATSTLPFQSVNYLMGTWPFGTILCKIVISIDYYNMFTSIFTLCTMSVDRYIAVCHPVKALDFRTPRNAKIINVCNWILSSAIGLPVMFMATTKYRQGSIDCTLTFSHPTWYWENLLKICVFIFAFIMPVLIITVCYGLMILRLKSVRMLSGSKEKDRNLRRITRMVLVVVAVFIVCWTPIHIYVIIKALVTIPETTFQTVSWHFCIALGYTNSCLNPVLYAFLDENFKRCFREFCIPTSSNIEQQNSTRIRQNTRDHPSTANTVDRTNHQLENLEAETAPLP
# SWI/SNF-related matrix-associated actin-dependent regulator of chromatin subfamily A member 2, sequence (P51531 whole entry): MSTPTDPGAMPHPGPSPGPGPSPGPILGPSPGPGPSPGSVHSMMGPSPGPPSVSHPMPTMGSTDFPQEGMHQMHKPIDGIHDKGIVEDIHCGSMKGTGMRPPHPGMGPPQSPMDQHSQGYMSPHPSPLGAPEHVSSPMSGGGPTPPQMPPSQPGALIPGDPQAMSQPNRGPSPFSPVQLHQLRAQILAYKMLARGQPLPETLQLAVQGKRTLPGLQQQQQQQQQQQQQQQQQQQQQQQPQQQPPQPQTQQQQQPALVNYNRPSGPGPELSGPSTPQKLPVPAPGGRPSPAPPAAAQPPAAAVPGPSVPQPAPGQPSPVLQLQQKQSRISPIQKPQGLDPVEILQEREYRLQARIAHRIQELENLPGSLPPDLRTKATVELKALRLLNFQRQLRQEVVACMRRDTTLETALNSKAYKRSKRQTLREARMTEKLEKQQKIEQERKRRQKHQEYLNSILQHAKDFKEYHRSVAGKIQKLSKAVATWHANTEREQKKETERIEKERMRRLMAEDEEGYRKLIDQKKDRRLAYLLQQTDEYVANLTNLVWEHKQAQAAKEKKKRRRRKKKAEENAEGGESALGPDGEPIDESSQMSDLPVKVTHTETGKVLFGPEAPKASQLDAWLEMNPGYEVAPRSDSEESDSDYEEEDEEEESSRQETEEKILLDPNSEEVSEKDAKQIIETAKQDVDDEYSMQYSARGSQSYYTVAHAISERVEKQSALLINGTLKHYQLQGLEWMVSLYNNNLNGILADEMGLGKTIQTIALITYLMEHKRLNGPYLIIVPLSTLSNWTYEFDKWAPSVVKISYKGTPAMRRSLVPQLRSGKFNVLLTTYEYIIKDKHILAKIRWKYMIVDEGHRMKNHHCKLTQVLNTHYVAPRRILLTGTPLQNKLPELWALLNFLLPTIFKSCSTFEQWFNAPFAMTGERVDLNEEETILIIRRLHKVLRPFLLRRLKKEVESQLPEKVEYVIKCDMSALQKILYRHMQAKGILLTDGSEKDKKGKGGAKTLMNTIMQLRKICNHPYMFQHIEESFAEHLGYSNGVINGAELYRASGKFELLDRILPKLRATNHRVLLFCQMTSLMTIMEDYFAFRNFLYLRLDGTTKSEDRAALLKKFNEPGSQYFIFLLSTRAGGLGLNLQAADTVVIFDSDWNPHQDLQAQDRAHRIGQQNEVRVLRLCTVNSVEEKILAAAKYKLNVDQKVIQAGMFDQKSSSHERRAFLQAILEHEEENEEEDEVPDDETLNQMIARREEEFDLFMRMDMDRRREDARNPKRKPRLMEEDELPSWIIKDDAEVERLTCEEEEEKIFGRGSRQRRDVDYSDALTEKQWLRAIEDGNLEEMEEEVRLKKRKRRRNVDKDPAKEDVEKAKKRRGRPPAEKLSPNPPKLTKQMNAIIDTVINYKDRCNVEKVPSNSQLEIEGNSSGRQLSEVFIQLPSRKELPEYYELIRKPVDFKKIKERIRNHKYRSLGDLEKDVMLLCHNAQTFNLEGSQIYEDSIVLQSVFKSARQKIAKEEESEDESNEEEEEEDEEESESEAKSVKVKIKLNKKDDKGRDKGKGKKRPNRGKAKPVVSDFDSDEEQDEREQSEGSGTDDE
# Luciferin 4-monooxygenase, sequence (P08659 whole entry, the tested form may be a part): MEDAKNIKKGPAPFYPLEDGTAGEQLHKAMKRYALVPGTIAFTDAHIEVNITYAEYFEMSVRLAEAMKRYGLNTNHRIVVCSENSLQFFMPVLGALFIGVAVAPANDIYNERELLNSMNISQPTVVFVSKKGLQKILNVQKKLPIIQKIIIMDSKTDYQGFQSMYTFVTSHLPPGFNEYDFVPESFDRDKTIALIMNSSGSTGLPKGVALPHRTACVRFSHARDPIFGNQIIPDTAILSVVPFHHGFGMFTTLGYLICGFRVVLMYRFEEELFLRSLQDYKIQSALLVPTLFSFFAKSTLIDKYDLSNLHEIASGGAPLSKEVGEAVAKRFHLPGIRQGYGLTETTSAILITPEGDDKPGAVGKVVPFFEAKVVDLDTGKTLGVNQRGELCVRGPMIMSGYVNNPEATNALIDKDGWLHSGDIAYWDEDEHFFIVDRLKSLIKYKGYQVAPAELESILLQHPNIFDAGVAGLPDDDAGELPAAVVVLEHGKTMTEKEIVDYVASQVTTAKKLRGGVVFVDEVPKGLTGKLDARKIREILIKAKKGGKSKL
# 5-hydroxytryptamine receptor 2A, sequence (P35363 whole entry, the tested form may be a part): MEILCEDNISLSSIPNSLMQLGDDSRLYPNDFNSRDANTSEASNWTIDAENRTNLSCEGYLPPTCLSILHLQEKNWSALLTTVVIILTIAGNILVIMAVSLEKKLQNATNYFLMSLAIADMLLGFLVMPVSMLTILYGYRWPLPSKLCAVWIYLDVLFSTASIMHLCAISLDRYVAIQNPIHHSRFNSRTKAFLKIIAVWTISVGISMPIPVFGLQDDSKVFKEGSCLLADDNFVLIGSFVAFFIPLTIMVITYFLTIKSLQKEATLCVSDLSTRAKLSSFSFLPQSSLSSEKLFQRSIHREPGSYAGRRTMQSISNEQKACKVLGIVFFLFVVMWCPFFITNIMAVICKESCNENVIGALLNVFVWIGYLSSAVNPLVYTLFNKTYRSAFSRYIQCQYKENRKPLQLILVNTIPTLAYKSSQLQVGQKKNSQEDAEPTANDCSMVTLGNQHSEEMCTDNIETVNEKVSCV
smiles,measurement,setting,value
Cc1cccc(CN2CCN(c3ncccn3)CC2)c1,EC50,Mu-type opioid receptor,92.5 µM (inactive)
same,EC50,[1],0.182 µM (active)
O=C(Nc1nc2ccccc2[nH]1)c1ccccc1F,AC50,[2],5.17 µM (active)
same,EC50,BJ [3],2.44 µM (active)
same,EC50,[4],1.13 µM (active)
same,AC50,[5],6.17 µM (active)
same,EC50,BJ [6],2.23 µM (active)
same,AC50,[7],3.82 µM (active)
same,EC50,[8],1.86 µM (active)
same,EC50,BJ [9],> 133 µM (inactive)
same,EC50,BJ [10],6.85 µM (inconclusive)
same,CC50,[11],8.56 µM (active)
same,AC50,INS1,3.06 µM (active)
same,EC50,[12],1.19 µM (active)
same,AC50,[13],6.83 µM (active)
O=C(NCc1nc2ccccc2[nH]1)C1=C[C@H](c2ccc3c(c2)OCO3)C[C@H](OCc2ccc(CO)cc2)O1,CC50,[14],> 50 µM (active)
same,IC50,[15],2.79 µM (active)
same,IC50,[16],83.3 µM (inactive)
same,IC50,[17],8.12 µM (active)
O=C1/C(=C/NCCc2ccccc2)c2ccccc2C(=O)N1Cc1ccccc1,IC50,Caspase-3,83.2 µM (inactive)
same,IC50,[18],4.54 µM (active)
same,IC50,[19],10.9 µM (active)
O=C(c1n[nH]cc1-c1cccc(Br)c1)C1CO1 (configuration not stated),EC50,[20],> 91.2 µM (inactive)
same,EC50,[21],> 91.2 µM (inactive)
COc1cc(/C=C2\CCCc3c2nc2ccccc2c3C(=O)O)cc(Br)c1O,IC50,[22],2.85 µM (active)
same,AC50,[23],63.8 µM (active)
same,IC50,[24],3.84 µM (active)
